Drawing on ChEMBL document CHEMBL2074294, “Differential effects of microsomal enzyme-inducing chemicals on the hepatic expression of rat organic anion transporters, OATP1 and OATP2” (Hepatology, 2001), this text covers Activity for one molecule.

For the series, the target named is T1, Solute carrier organic anion transporter family member 1A4 (Rattus norvegicus, UniProt O35913).
T1 sequence (O35913 whole entry): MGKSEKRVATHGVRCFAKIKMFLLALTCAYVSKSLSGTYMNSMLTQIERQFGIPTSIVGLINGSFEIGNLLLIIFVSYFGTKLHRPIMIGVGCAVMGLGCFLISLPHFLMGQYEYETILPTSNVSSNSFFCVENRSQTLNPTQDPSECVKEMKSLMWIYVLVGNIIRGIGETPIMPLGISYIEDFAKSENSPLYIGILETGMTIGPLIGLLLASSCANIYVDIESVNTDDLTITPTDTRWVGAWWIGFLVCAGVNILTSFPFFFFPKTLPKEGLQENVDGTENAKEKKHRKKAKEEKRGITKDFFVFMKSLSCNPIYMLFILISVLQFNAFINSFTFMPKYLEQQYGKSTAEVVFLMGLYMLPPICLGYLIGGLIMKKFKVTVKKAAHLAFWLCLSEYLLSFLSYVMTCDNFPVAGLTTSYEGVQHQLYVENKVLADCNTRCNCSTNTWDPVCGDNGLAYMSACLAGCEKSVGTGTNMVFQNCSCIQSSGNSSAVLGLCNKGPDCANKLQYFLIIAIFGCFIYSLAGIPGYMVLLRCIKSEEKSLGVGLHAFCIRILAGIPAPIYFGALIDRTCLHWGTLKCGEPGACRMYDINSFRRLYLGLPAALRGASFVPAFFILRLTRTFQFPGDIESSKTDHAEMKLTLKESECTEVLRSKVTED
Briefly: TP_TRANSPORTER: Western blot. Format: functional.

Molecules are shown by their SMILES.

Regarding `Cc1ccc2cc3c(ccc4ccccc43)c3c2c1CC3` [3-METHYLCHOLANTHRENE], the Activity result was “inducer [Decrease]”.
